Assay results published in PMC11627468, “Novel enzyme‐resistant pancreatic polypeptide analogs evoke pancreatic beta‐cell rest, enhance islet cell turnover, and inhibit food intake in mice” (Biofactors (Oxford, England), 2024).

Columns and labels:
[1] = tested on: C57BL/6 mice; test: Acute food intake in overnight fasted mice; format: in vivo; conditions: n = 6
Procedure: (§1) Acute in vivo studies were conducted in groups (n = 6) of 4‐month‐old male C57BL/6 mice (Envigo, Huntington, UK). All mice were maintained on standard rodent chow (10% fat, 30% protein, and 60% carbohydrate; Trouw Nutrition, Northwich, UK), and drinking water provided ad libitum. Mice were housed individually and kept in a temperature‐controlled environment (22 ± 2°C), with a 12‐h light/dark cycle. Experiments were carried out in accordance with the UK Animal Scientific Procedures Act 1986 as well as being approved by Ulster University Animal Ethics Review Committee (AWERB) committee and protected by the UK Home Office Animal project license number PPL2902, approved on April 26, 2021. Acute effects of test peptides on food intake were tested in overnight (16 h) fasted mice. Briefly, fasted mice were administered an intraperitoneal (i.p.) injection of saline vehicle (0.9% (w/v) NaCl) alone or in combination with test peptides (each at 25, 75, or 200 nmol/kg bw) and cumulative food intake measured at regular intervals, to assess the pharmacodynamic profile of the test peptides. For food intake studies, mice were provided with preweighed rodent maintenance diet in their food hopper at t = 0 min, which was then re‐weighed at each timepoint with all due care taken to account for any wastage or crumbling of the food pellets. In this regard, the investigator was present at all times during the 180‐min test period to ensure accuracy and consistency in all measurements. Furthermore, effects of PP or related peptides (25 nmol/kg bw) on glucose homeostasis and insulin secretion were evaluated in overnight fasted mice following i.p. injection of glucose alone (18 mmol/kg bw) or in combination with PP peptides (each at 25 nmol/kg bw).

[2] = tested on: C57BL/6 mice; test: Glucose tolerance in mice; format: in vivo; conditions: peptide 25 nmol/kg i.p. conjointly with glucose 18 mmol/kg, overnight fasted mice; n = 6
Procedure: as §1, with “bw). […] Blood glucose was measured immediately using a hand‐held Ascencia Contour blood glucose meter (Bayer Healthcare, Newbury, Berkshire, UK). […]” for “bw).”

[3] = target: T1, NPY4R (Rattus norvegicus, UniProt Q63447); test: Receptor specificity: beta‐cell proliferation with NPY4R antagonist (S)‐VU0637120; format: cell-based; conditions: peptide 10^−6 M co‐incubated with NPY4R antagonist (S)‐VU0637120 10^−5 M; Ki‐67; n = 3
T1 construct: endogenous in cells; host or cells: BRIN-BD11 beta cells
Procedure: To assess the effects of PP and related peptides (10^−8 and 10^−6 M) on beta‐cell proliferation and apoptosis, BRIN‐BD11 beta‐cells were seeded onto sterilized, clear‐glass coverslips (16 mm diameter) and placed in 12‐well plates (Falcon Ltd) at a density of 40,000 cells per well and cultured for 18 h. Media control (11.1 mM glucose), GLP‐1 (10^−8 and 10^−6 M), and a cytokine cocktail mix (IL‐1β [100 U/mL], IFNγ [20 U/mL], TNFα [200 U/mL], Sigma Aldrich, UK) were employed as controls, as appropriate. Cells were then rinsed with PBS and fixed using 4% paraformaldehyde. After antigen retrieval with sodium citrate buffer at 95°C for 20 min, blocking was performed using 2% bovine serum albumin (BSA) for 45 min. For proliferation studies, the slips were then incubated at 37°C with rabbit anti‐Ki‐67 primary antibody (Abcam, ab15580), and subsequently with Alexa Fluor® 488 secondary antibody. Coverslips were mounted onto polylysine‐coated microscope slides using a 50:50 glycerol:PBS solution and stored at 4°C until required for analysis. To assess the ability of PP peptides to protect against cytokine‐induced apoptosis, cells were seeded, washed, and fixed as above, with the exception that the media was supplemented with the cytokine mix. […] Proliferation/TUNEL positive frequency was determined using the cell‐counter function on ImageJ Software and expressed as % of total cells analyzed.

T1 sequence (Q63447 whole entry): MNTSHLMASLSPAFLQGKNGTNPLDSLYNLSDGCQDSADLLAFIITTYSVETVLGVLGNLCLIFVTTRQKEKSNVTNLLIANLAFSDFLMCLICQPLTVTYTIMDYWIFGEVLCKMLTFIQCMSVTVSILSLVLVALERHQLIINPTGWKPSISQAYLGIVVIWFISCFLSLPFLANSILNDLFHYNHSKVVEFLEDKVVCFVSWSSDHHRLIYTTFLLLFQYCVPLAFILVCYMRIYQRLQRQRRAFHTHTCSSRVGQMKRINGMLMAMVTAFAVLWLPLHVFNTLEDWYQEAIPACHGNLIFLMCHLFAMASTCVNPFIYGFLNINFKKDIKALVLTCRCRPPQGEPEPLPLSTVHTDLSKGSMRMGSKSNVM

## CC[C@H](C)[C@H](NC(=O)[C@H](Cc1ccc(O)cc1)NC(=O)[C@H](CCCNC(=N)N)NC(=O)[C@H](CCCNC(=N)N)NC(=O)[C@H](CC(C)C)NC(=O)[C@H](CC(=O)O)NC(=O)[C@H](C)NC(=O)[C@H](C)NC(=O)[C@H](Cc1ccc(O)cc1)NC(=O)[C@H](CCC(N)=O)NC(=O)[C@H](C)NC(=O)[C@H](CCSC)NC(=O)[C@H](CCC(N)=O)NC(=O)[C@H](CCC(=O)O)NC(=O)[C@@H]1CCCN1C(=O)[C@@H](NC(=O)[C@H](C)NC(=O)[C@H](CC(N)=O)NC(=O)[C@H](CC(=O)O)NC(=O)CNC(=O)[C@@H]1CCCN1C(=O)[C@H](Cc1ccc(O)cc1)NC(=O)[C@@H](NC(=O)[C@@H]1CCCN1C(=O)[C@H](CCC(=O)O)NC(=O)[C@H](CC(C)C)NC(=O)[C@@H]1CCCN1C(=O)[C@H](C)N)C(C)C)[C@@H](C)O)C(=O)N[C@@H](CC(N)=O)C(=O)N[C@@H](CCSC)C(=O)N[C@@H](CC(C)C)C(=O)N[C@H](C(=O)N[C@@H](CCCNC(=N)N)C(=O)N1CCC[C@H]1C(=O)N[C@@H](CCCNC(=N)N)C(=O)N[C@@H](Cc1ccc(O)cc1)C(N)=O)[C@@H](C)O [PP, Pancreatic polypeptide]
[1]; 25 nmol/kg i.p., overnight (16 h) fasted mice, up to 180 min, versus saline
  cumulative food intake (appetite suppression): particularly effective
[1]; PP peptide 25 nmol/kg with CCK‐8 25 nmol/kg i.p., fasted mice, compared with CCK‐8
  food intake in combination with CCK‐8: significantly (p = <0.05 to 0.01) augment this effect from 90 min onwards
[1]; PP peptide 25 nmol/kg with exendin‐4 0.25 nmol/kg i.p., fasted mice
  food intake in combination with exendin‐4: additive appetite suppressive actions
[2]
  glucose homeostasis (blood glucose): Neither native PP, nor related PP analogs, exerted any effect
[3]
  dependence of beta‐cell proliferative benefit on NPY4R signaling: dependent on NPY4R signaling
